The text below walks through data of US12122781B2, “Hydrates of polymorphs of 6-(1H-indazol-6-yl)-N-(4-morpholinophenyl)-2,3-dihydroimidazo[1,2-a]pyrazin-8-amine bis-mesylate as Syk inhibitors” (Kronos Bio, Inc., priority 2017, dated 2024).

Holding throughout (format): physicochemical
The nature of data set [1]: XRPD analysis of the sample after the DVS experiment (solid form stability to humidity). The settings on record: after DVS cycle 5% RH to 95% RH and back at 25° C. The method, then: X-ray powder diffraction (XRPD) analysis was conducted on a diffractometer (PANalytical XPERT-PRO, PANalytical B. V., Almelo, Netherlands) using copper radiation (Cu Kα, λ=1.541874). Samples were spread evenly on a zero background sample plate. The generator was operated at a voltage of 45 kV and amperage of 40 mA. Slits were Soller 0.02 rad, antiscatter 1.0°, and divergence. Scans were performed from 2 to 40° 2θ with a 0.0167 step size. Data analysis was performed using X′Pert Data Viewer V1.2d (PANalytical B. V., Almelo, Netherlands).
(§1) Hygroscopicity was studied using dynamic vapor sorption (DVS, TA Q5000 SA, TA Instruments, New Castle, DE or DVS, DVS Intrinsic, Surface Measurement Systems, London, UK). A sample (2-20 mg) was placed in an aluminum DVS pan and loaded on the sample side of the twin pan balance. The water sorption and desorption were studied as a function of relative humidity (RH) at 25° C. In 10% RH increments, the relative humidity was increased from 5% RH to 95% RH and then decreased back to 5%. […] Data analysis was performed using Universal Analysis 2000 Version 4.7A (TA Instruments, New Castle, DE) for TA DVS runs and Microsoft Excel for SMS DVS runs.

The nature of data set [2]: Hygroscopicity by dynamic vapor sorption (DVS). The settings on record: up to 95% RH at 25° C.; bis-mesylate. The protocol: as §1
Data set [3] is described as follows: Solid form stability at ambient conditions. The settings on record: before KF could be run.

Each structure is given as a SMILES string.

Turning to `C1=C(c2ccc3cn[nH]c3c2)N=C(Nc2ccc(N3CCOCC3)cc2)C2=NCCN12.CS(=O)(=O)O.CS(=O)(=O)O` [Form XIII, 6-(1H-indazol-6-yl)-N-(4-morpholinophenyl)-2,3-dihydroimidazo[1,2-a]pyrazin-8-amine bis-mesylate], in data set [1], the “solid form found by XRPD after the DVS experiment” value (“solid form found by XRPD” below) was “converted to Form VII”. In data set [2], the “water absorbed (dynamic vapor sorption)” value is given as ~25 wt. %. Besides, the “stability of the polymorphic form at ambient conditions” value in data set [3] is given as “unstable at ambient conditions”.

As to `C1=C(c2ccc3cn[nH]c3c2)N=C(Nc2ccc(N3CCOCC3)cc2)C2=NCCN12.CS(=O)(=O)O.CS(=O)(=O)O` [Form VI, 6-(1H-indazol-6-yl)-N-(4-morpholinophenyl)-2,3-dihydroimidazo[1,2-a]pyrazin-8-amine bis-mesylate], in data set [1], the “solid form found by XRPD” value is reported as “converted to Form VII”. Besides, in data set [2], the “water absorbed (dynamic vapor sorption)” value is reported as ~17 wt. %.

Turning to `C1=C(c2ccc3cn[nH]c3c2)N=C(Nc2ccc(N3CCOCC3)cc2)C2=NCCN12.CS(=O)(=O)O.CS(=O)(=O)O` [Form II, 6-(1H-indazol-6-yl)-N-(4-morpholinophenyl)-2,3-dihydroimidazo[1,2-a]pyrazin-8-amine bis-mesylate], in data set [1], the “solid form found by XRPD” value is “converted to Form VII”. Further, in data set [2], the “water absorbed (dynamic vapor sorption)” value is reported as “about 30 wt. %”.

As for `C1=C(c2ccc3cn[nH]c3c2)N=C(Nc2ccc(N3CCOCC3)cc2)C2=NCCN12.CS(=O)(=O)O.CS(=O)(=O)O` [Form I, 6-(1H-indazol-6-yl)-N-(4-morpholinophenyl)-2,3-dihydroimidazo[1,2-a]pyrazin-8-amine bis-mesylate], the “solid form found by XRPD” value in data set [1] was “converted to Form VII”. The “water absorbed (dynamic vapor sorption)” value in data set [2] was “about 30 wt. %”.

As to `C1=C(c2ccc3cn[nH]c3c2)N=C(Nc2ccc(N3CCOCC3)cc2)C2=NCCN12.CS(=O)(=O)O.CS(=O)(=O)O` [Form XV, 6-(1H-indazol-6-yl)-N-(4-morpholinophenyl)-2,3-dihydroimidazo[1,2-a]pyrazin-8-amine bis-mesylate], the “solid form found by XRPD” value in data set [1] is recorded as “converted to Form VII”. The “water absorbed (dynamic vapor sorption)” value in data set [2] is ~23 wt. %.

For `C1=C(c2ccc3cn[nH]c3c2)N=C(Nc2ccc(N3CCOCC3)cc2)C2=NCCN12.CS(=O)(=O)O.CS(=O)(=O)O` [Form XIV, 6-(1H-indazol-6-yl)-N-(4-morpholinophenyl)-2,3-dihydroimidazo[1,2-a]pyrazin-8-amine bis-mesylate], in data set [1], the “solid form found by XRPD” value is “converted to Form VII”. In addition, the “water absorbed (dynamic vapor sorption)” value in data set [2] is reported as “about 35 wt. %”.

As for `C1=C(c2ccc3cn[nH]c3c2)N=C(Nc2ccc(N3CCOCC3)cc2)C2=NCCN12.CS(=O)(=O)O.CS(=O)(=O)O` [Form XVI, 6-(1H-indazol-6-yl)-N-(4-morpholinophenyl)-2,3-dihydroimidazo[1,2-a]pyrazin-8-amine bis-mesylate], the “solid form found by XRPD” value in data set [1] is “converted to Form VII”. Further, the “water absorbed (dynamic vapor sorption)” value in data set [2] was ~28 wt. %.

On to `C1=C(c2ccc3cn[nH]c3c2)N=C(Nc2ccc(N3CCOCC3)cc2)C2=NCCN12.CS(=O)(=O)O.CS(=O)(=O)O` [Form XIX, 6-(1H-indazol-6-yl)-N-(4-morpholinophenyl)-2,3-dihydroimidazo[1,2-a]pyrazin-8-amine bis-mesylate], for which the “solid form found by XRPD” value in data set [1] is “converted to Form VII”. Also, the “water absorbed (dynamic vapor sorption)” value in data set [2] is recorded as “about 28 wt. %”.

In the case of `C1=C(c2ccc3cn[nH]c3c2)N=C(Nc2ccc(N3CCOCC3)cc2)C2=NCCN12.CS(=O)(=O)O.CS(=O)(=O)O` [Form XVIII, 6-(1H-indazol-6-yl)-N-(4-morpholinophenyl)-2,3-dihydroimidazo[1,2-a]pyrazin-8-amine bis-mesylate], in data set [1], the “solid form found by XRPD” value is reported as “converted to Form VII”.

With `C1=C(c2ccc3cn[nH]c3c2)N=C(Nc2ccc(N3CCOCC3)cc2)C2=NCCN12.CS(=O)(=O)O.CS(=O)(=O)O` [Amorphous form, 6-(1H-indazol-6-yl)-N-(4-morpholinophenyl)-2,3-dihydroimidazo[1,2-a]pyrazin-8-amine bis-mesylate], the “solid form found by XRPD” value in data set [1] was “converted to Form VII”. Besides, in data set [2], the “water absorbed (dynamic vapor sorption)” value is reported as “about 38 wt. %”.
